Several values for one entry are separate records, joined by “and”; a condition that tells them apart may be missing. Equal values may be shown once. Read-outs that look alike come from different tables or passages of the source.
Legend:
Format in all cases: cell-based
[1] = molecular target: protein kinases (human kinome) (Homo sapiens, UniProt Q92918)
[2] = molecular target: protein kinases (human kinome) (Homo sapiens, UniProt P06241); details: for logFC: FYN (P06241-1), direction down
[3] = molecular target: T1, protein kinases (human kinome) (Homo sapiens, UniProt Q13546)
T1 sequence (Q13546 1-671): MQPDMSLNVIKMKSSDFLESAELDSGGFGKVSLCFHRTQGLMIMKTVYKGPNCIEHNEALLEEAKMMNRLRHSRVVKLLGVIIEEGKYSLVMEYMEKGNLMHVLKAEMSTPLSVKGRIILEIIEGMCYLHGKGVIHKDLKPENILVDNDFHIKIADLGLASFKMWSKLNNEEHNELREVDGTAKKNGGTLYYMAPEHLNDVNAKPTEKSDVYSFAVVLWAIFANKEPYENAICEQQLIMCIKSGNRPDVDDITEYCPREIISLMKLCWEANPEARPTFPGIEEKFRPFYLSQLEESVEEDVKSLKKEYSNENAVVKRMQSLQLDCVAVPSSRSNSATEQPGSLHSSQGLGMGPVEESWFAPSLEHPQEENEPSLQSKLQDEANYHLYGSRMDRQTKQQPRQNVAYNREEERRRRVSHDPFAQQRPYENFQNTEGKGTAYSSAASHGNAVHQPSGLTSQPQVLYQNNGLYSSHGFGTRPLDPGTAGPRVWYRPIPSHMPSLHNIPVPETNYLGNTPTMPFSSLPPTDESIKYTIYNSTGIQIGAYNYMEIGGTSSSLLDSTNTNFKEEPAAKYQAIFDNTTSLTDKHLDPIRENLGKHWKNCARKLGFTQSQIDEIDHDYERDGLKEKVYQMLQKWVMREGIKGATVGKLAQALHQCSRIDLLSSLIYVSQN

[4] = molecular target: protein kinases (human kinome) (Homo sapiens, UniProt P49137)
[5] = molecular target: T2, protein kinases (human kinome) (Homo sapiens, UniProt Q9UBE8)
T2 sequence (Q9UBE8 1-527): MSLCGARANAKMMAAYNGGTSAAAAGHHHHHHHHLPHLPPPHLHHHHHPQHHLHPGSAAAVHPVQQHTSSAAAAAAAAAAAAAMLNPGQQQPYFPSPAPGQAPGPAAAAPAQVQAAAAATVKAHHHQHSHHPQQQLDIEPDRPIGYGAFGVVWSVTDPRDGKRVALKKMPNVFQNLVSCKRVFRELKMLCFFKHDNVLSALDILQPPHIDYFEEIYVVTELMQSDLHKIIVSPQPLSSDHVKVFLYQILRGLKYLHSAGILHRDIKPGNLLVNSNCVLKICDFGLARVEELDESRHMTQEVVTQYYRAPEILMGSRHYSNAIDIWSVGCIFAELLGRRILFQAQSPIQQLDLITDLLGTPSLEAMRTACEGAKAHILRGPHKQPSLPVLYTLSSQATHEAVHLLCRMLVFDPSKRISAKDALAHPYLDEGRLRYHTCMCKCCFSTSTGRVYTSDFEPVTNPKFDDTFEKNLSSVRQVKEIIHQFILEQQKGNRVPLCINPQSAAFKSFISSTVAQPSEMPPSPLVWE

[6] = Accession P06241-1, experiment wp105
[7] = Accession P06241-1, experiment wp107
[8] = NLK (Q9UBE8), experiment wp137, direction down
[9] = Accession P49137, experiment wp168, direction down
[10] = MAPKAPK2 (P49137), experiment wp168

Sequence of protein kinases (human kinome) (Homo sapiens, UniProt P06241) (P06241 whole entry): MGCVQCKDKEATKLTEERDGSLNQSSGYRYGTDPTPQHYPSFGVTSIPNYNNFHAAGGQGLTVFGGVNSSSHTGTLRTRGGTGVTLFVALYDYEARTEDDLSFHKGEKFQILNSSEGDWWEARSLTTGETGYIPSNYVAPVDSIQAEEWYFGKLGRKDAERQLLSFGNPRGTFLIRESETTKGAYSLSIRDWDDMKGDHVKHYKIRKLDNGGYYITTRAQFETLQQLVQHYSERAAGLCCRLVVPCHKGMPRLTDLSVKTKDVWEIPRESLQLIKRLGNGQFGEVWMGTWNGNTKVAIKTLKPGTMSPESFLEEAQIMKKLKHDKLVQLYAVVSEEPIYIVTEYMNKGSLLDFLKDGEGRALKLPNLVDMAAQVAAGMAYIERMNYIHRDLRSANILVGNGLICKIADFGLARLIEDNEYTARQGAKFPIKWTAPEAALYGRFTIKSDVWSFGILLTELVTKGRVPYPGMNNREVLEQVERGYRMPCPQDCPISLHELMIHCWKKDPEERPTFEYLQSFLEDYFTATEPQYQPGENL
Sequence of protein kinases (human kinome) (Homo sapiens, UniProt P49137) (P49137 whole entry): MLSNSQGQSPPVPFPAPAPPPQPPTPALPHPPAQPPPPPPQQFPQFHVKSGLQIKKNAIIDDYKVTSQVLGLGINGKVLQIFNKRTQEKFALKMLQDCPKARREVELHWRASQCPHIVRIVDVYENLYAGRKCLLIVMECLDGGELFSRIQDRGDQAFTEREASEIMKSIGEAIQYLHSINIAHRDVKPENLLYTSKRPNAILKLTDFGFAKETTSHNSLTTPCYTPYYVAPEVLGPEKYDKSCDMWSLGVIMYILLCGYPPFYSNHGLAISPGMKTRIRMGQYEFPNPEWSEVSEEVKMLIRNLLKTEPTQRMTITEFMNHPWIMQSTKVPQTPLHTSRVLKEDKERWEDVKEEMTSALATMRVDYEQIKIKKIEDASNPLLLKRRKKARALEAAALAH
Sequence of protein kinases (human kinome) (Homo sapiens, UniProt Q92918) (Q92918 whole entry): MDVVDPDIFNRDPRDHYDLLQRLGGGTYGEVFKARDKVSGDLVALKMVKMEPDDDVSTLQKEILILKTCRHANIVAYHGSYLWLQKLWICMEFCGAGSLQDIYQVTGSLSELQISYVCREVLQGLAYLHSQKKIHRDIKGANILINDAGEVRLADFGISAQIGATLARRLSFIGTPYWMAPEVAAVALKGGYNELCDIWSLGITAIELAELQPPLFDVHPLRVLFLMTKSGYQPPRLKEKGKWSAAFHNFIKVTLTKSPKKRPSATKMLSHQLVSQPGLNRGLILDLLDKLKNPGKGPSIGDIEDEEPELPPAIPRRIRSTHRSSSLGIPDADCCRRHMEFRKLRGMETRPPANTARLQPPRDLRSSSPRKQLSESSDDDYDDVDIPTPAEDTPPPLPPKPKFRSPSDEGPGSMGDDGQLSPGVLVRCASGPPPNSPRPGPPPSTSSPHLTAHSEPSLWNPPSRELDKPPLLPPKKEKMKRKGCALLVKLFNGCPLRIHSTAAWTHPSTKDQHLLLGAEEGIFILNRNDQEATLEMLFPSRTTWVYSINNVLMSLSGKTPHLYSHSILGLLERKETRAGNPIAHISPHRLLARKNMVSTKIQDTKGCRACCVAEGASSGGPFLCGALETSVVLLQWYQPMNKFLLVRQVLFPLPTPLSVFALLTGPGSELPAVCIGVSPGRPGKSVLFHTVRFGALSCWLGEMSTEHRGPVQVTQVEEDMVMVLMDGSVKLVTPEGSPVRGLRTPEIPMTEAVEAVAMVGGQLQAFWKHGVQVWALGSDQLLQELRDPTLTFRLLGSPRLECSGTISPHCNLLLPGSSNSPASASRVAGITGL

CC(C)S(=O)(=O)c1ccccc1Nc1nc(Nc2ccc(N3CCN(CCOCCNC(=O)CNc4cccc5c4C(=O)N(C4CCC(=O)NC4=O)C5=O)CC3)cc2)ncc1Cl (stereo not shown) [SK.3.91]
logFC MAP4K1 (Q92918) ([1]; experiment wp016, 1 uM): −0.6677 | logFC MAP4K1 (Q92918) ([1]; experiment wp103): −0.5099 | logFC MAP4K1 (Q92918) ([1]; experiment wp107): −0.7036 | logFC MAP4K1 (Q92918) ([1]; experiment wp133, 4 hr): −0.5528 | logFC MAP4K1 (Q92918) ([1]; experiment wp160, 4 hr): −0.4817 | logFC FYN [2, 6]: −0.3586 | logFC FYN [2, 7]: −0.4288 | logFC ([2]; experiment wp105): −0.3586 | logFC ([2]; experiment wp107): −0.4288

Cc1ccc(NC(=O)c2cccc(C(F)(F)F)c2)cc1N1Cc2cnc(Nc3ccc(N4CCN(Cc5cn(CCCCCOc6cccc7c6C(=O)N(C6CCC(=O)NC6=O)C7=O)nn5)CC4)nc3)nc2N(C)C1=O (stereo not shown) [DB0646, N-(3-(7-((6-(4-((1-(5-((2-(2,6-Dioxopiperidin-3-yl)-1,3-dioxoisoindolin-4-yl)oxy)pentyl)-1H-1,2,3-triazol-4-yl)methyl)piperazin-1-v)pyridin-3-yl)amino)-1-methyl-2-oxo-1,4-dihydropyrimido[4,5-d]pyrimidin-3(2H)-yl)-4-methylphenyl)-3-(trifluoromethyl)benzamide]
logFC MAP4K1 (Q92918) ([1]; experiment wp045): −0.4789 | logFC MAP4K1 (Q92918) ([1]; experiment wp152): −0.3638 | logFC MAP4K1 (Q92918) ([1]; experiment wp160, 4 hr): −0.3228 | logFC MAP4K1 (Q92918) ([1]; experiment wp160, 8 hr): −0.5785 | logFC FYN [2, 6]: −0.4621 | logFC FYN ([2]; Accession P06241, experiment wp152): −0.3685 | logFC FYN (P06241) ([2]; Experiment wp152, direction of change down): −0.3685 | logFC ([2]; experiment wp105): −0.4621 | logFC RIPK1 (Q13546) ([3]; experiment wp045): −0.7115 | logFC RIPK1 (Q13546) ([3]; experiment wp103): −0.4796 | logFC RIPK1 (Q13546) ([3]; experiment wp105): −0.4233 | logFC RIPK1 (Q13546) ([3]; experiment wp107): −0.5121 | logFC RIPK1 (Q13546) ([3]; experiment wp117): −0.616 | logFC RIPK1 (Q13546) ([3]; experiment wp152): −0.5495 | logFC RIPK1 (Q13546) ([3]; experiment wp160, 4 hr): −0.3907 | logFC RIPK1 (Q13546) ([3]; experiment wp160, 8 hr): −0.8745 | logFC MAPKAPK2 ([4]; Accession P49137, experiment wp045, direction down): −0.4334 | logFC MAPKAPK2 ([4]; Accession P49137, experiment wp105, direction down): −0.4562 | logFC MAPKAPK2 ([4]; Accession P49137, experiment wp107, direction down): −0.3734 | logFC MAPKAPK2 ([4]; Accession P49137, experiment wp114, direction down): −0.4911 | logFC MAPKAPK2 ([4]; Accession P49137, experiment wp117, direction down): −0.4333 | logFC MAPKAPK2 ([4]; Accession P49137, experiment wp152, direction down): −0.4223 | logFC MAPKAPK2 ([4]; Accession P49137, experiment wp160, 4 hr, direction down): −0.3444 | logFC MAPKAPK2 ([4]; Accession P49137, experiment wp160, 8 hr, direction down): −0.6227 | logFC MAPKAPK2 ([4]; Accession P49137, experiment wp172, direction down): −0.3294 | logFC MAPKAPK2 ([4]; MAPKAPK2 (P49137), experiment wp045): −0.4334 | logFC MAPKAPK2 ([4]; MAPKAPK2 (P49137), experiment wp105): −0.4562 | logFC MAPKAPK2 ([4]; MAPKAPK2 (P49137), experiment wp107): −0.3734 | logFC MAPKAPK2 ([4]; MAPKAPK2 (P49137), experiment wp114): −0.4911 | logFC MAPKAPK2 ([4]; MAPKAPK2 (P49137), experiment wp117): −0.4333 | logFC MAPKAPK2 ([4]; MAPKAPK2 (P49137), experiment wp152): −0.4223 | logFC MAPKAPK2 ([4]; MAPKAPK2 (P49137), experiment wp160, 4 hr): −0.3444 | logFC MAPKAPK2 ([4]; MAPKAPK2 (P49137), experiment wp160, 8 hr): −0.6227 | logFC MAPKAPK2 ([4]; MAPKAPK2 (P49137), experiment wp172): −0.3294 | logFC ([5]; NLK (Q9UBE8), experiment wp117, direction down): −0.501 | logFC ([5]; NLK (Q9UBE8), experiment wp160, 8 hr, direction down): −0.5569 | logFC ([5]; NLK Q9UBE8, experiment wp117): −0.501 | logFC ([5]; NLK Q9UBE8, experiment wp160, 8 hr): −0.5569

CC(C)(C)c1nc(-c2cccc(NS(=O)(=O)c3c(F)cccc3F)c2F)c(-c2ccnc(NCCOCCNC(=O)CCOCCOCCNc3cccc4c3C(=O)N(C3CCC(=O)NC3=O)C4=O)n2)s1 (stereo not shown) [DD.03.106]
logFC [5, 8]: −0.441

Cc1ccc(NC(=O)c2cccc(C(F)(F)F)c2)cc1N1Cc2cnc(Nc3ccc(N4CCN(CCCCC(=O)N[C@H](C(=O)N5C[C@H](O)C[C@H]5C(=O)N[C@@H](C)c5ccc(-c6scnc6C)cc5)C(C)(C)C)CC4)nc3)nc2N(C)C1=O [DB1113]
logFC MAP4K1 (Q92918) ([1]; experiment wp168): −0.8463 | logFC RIPK1 (Q13546) ([3]; experiment wp168): −1.99 | logFC MAPKAPK2 [4, 9]: −3.201 | logFC MAPKAPK2 [4, 10]: −3.201 | logFC ([5]; NLK (Q9UBE8), experiment wp168, direction down): −0.8556 | logFC ([5]; NLK Q9UBE8, experiment wp168): −0.8556

CC(C)S(=O)(=O)c1ccccc1Nc1nc(Nc2ccc(N3CCN(CCOCCOCCNC(=O)CNc4cccc5c4C(=O)N(C4CCC(=O)NC4=O)C5=O)CC3)cc2)ncc1Cl (stereo not shown) [TL12.186]
logFC MAP4K1 (Q92918) ([1]; experiment wp131): −0.4581 | logFC MAP4K1 (Q92918) ([1]; experiment wp137): −0.6136 | logFC [5, 8]: −0.5154 | logFC ([5]; NLK Q9UBE8, experiment wp137): −0.5154

Cc1ccc(C(=O)Nc2ccc(CN3CCN(CCOCCOCCNC(=O)CNc4cccc5c4C(=O)N(C4CCC(=O)NC4=O)C5=O)CC3)c(C(F)(F)F)c2)cc1C#Cc1cnc2cccnn12 (stereo not shown) [TL13.150]
logFC RIPK1 (Q13546) ([3]; experiment wp081): −0.667

Cc1ccc(NC(=O)c2cccc(C(F)(F)F)c2)cc1N1Cc2cnc(Nc3ccc(N4CCN(CCCOc5cccc6c5C(=O)N(C5CCC(=O)NC5=O)C6=O)CC4)nc3)nc2N(C)C1=O (stereo not shown) [DB0662]
logFC MAP4K1 (Q92918) ([1]; experiment wp168): −0.4067 | logFC MAPKAPK2 [4, 9]: −0.331 | logFC MAPKAPK2 [4, 10]: −0.331

Cn1c(=O)c(-c2c(Cl)cccc2Cl)cc2cnc(Nc3ccc(OCCNC(=O)CCCCCCNC(=O)COc4cccc5c4C(=O)N(C4CCC(=O)NC4=O)C5=O)cc3)nc21 (stereo not shown) [SB1.G.192.1]
logFC FYN ([2]; Accession P06241-1, experiment wp081): −0.9314 | logFC ([2]; experiment wp081): −0.9314 | logFC ([5]; NLK (Q9UBE8), experiment wp071, direction down): −0.5578 | logFC ([5]; NLK (Q9UBE8), experiment wp081, direction down): −0.4869 | logFC ([5]; NLK (Q9UBE8), experiment wp131, direction down): −0.5634 | logFC ([5]; NLK Q9UBE8, experiment wp071): −0.5578 | logFC ([5]; NLK Q9UBE8, experiment wp081): −0.4869 | logFC ([5]; NLK Q9UBE8, experiment wp131): −0.5634

Cc1ccc(C(=O)Nc2ccc(CN3CCN(CCCOCCOCCOCCNC(=O)COc4cccc5c4C(=O)N(C4CCC(=O)NC4=O)C5=O)CC3)c(C(F)(F)F)c2)cc1C#Cc1cnc2cccnn12 (stereo not shown) [SB1.G.187]
logFC FYN [2, 6]: −0.7697 | logFC FYN [2, 7]: −0.3601 | logFC ([2]; experiment wp105): −0.7697 | logFC ([2]; experiment wp107): −0.3601 | logFC RIPK1 (Q13546) ([3]; Experiment wp172): −0.9666 and −0.9656 | logFC RIPK1 (Q13546) ([3]; experiment wp056): −1.288 | logFC RIPK1 (Q13546) ([3]; experiment wp103): −1.767 | logFC RIPK1 (Q13546) ([3]; experiment wp105): −1.141 | logFC RIPK1 (Q13546) ([3]; experiment wp107): −1.502
